Data from PMC11893521, “Examining Farnesyltransferase Interaction With Cell‐Permeable CaaX Peptides and the Role of the CaaX Motif in Biological Activity” (Journal of Peptide Science, 2025).
Peptide text beside a SMILES is read from it.

Tests used:
rFTase = target: T1, rFTase (Rattus norvegicus, UniProt Q02293+Q04631); assay: Mass spectrometry-based farnesylation assay (rFTase); assay type: biochemical; details: each peptide 18 h at 37°C with rFTase and FPP, LC-ESI-MS
T1 construct: purchased Jena Bioscience PR-102
Procedure: […] CaaX‐1 or scrambled control was incubated with 50‐nM recombinantly expressed hFTase or rFTase (Jena Bioscience, Cat#PR‐102) and 10‐μM farnesyl pyrophosphate (FPP) in reaction buffer (50‐mM Tris HCl pH 7.5, 5‐mM DTT, 5‐mM MgCl2, 10‐μM ZnCl2, and 0.2% n‐octyl‐beta‐D‐glucopyranoside) at 37°C for 18 h. Afterwards, the reaction mixture was desalted via C18 ZipTips (Merck Millipore). For this, ZipTips were washed with ACN and equilibrated in 0.1% FA in H2O. Then, the column was loaded with the reaction solution and subsequently washed with 0.1% FA in H2O and 5% MeOH in H2O each supplemented with 0.1% FA. Elution was performed using 50% ACN with 0.1% FA, and the eluted solution was analyzed by RP‐HPLC using a linear gradient of 10%–60% ACN in H2O with 0.1% FA or TFA using a flow rate of 0.6 or 1.0 mL/min, respectively, and by ESI‐MS analysis (LTQ‐XL, Thermo Scientific, Waltham, Massachusetts, USA).

HeLa cells = assay: Resazurin-based cytotoxicity assay; assay type: cell-based; details: serum-free medium, 24 h, triplicate (n = 3)
Procedure: Cytotoxicity of the peptides to HeLa cells were investigated using a resazurin‐based cytotoxicity assay (Sigma Aldrich). For this, 14,000 HeLa cells were seeded in a 96‐well plate and grown in complete medium at 37°C to 80%–90% subconfluency. Cells were treated with different peptide dilutions in serum‐free medium at 37°C for 24 h. Untreated cells served as negative control and cells treated with 70% ethanol for 10 min as positive control. Cells were washed with PBS and subsequently incubated with a 10% resazurin solution in serum‐free medium for ~1 h. To determine the viability of the cells, the fluorescence was measured at 595 nm after excitation at 550 nm using a Tecan infinite M200 plate reader.

Row | farnesylation by rFTase (CaaX-1 versus scrambled controls) (rFTase) | SMILES | cytotoxicity to HeLa cells at 100 μM (HeLa cells)
1 | lack of catalytic conversion | CC[C@H](C)[C@H](N)C(=O)N[C@H](C(=O)N[C@@H](Cc1ccccc1)C(=O)N[C@@H](CCCNC(=N)N)C(=O)N[C@@H](CCCCN)C(=O)N[C@@H](CCCCN)C(=O)N[C@@H](CC(C)C)C(=O)N[C@@H](CCCNC(=N)N)C(=O)N[C@@H](CCCCN)C(=O)N[C@@H](CCCCN)C(=O)N[C@@H](CS)C(=O)N[C@@H](CO)C(=O)N[C@@H](CCCCN)C(=O)NCC(=O)N[C@@H](CC(C)C)C(=O)N[C@H](C(=O)N[C@@H](CCCNC(=N)N)C(=O)N[C@@H](CCCNC(=N)N)C(=O)N[C@@H](CC(N)=O)C(=O)N[C@@H](CCSC)C(=O)O)C(C)C)[C@@H](C)O [scrCaaX‐1] (H-ITFRKKLRKKCSKGLVRRNM-OH) | 
2 | lack of catalytic conversion | CC[C@H](C)[C@H](NC(=O)[C@H](CS)NC(=O)[C@H](CCCCN)NC(=O)[C@H](CCCCN)NC(=O)[C@H](CC(N)=O)NC(=O)[C@H](CCCNC(=N)N)NC(=O)[C@H](Cc1ccccc1)NC(=O)[C@H](CCCCN)NC(=O)[C@H](CCCNC(=N)N)NC(=O)[C@H](CC(C)C)NC(=O)[C@H](CCCNC(=N)N)NC(=O)[C@H](CCCCN)NC(=O)[C@H](CCCNC(=N)N)NC(=O)[C@H](CC(C)C)NC(=O)CN)C(=O)N[C@@H](CCCCN)C(=O)N[C@H](C(=O)N[C@@H](CCSC)C(=O)N[C@H](C(=O)N[C@@H](CO)C(=O)O)[C@@H](C)O)C(C)C [CaaX‐1hscr] (H-GLRKRLRKFRNKKCIKVMTS-OH) | slight toxicity
